# Measured values published in patent US12558432B2, “Biocompatible polymeric drug carriers for delivering active agents” (CIS BIOPHARMA AG, priority 2019, dated 2026).
# System: cell culture
# Assay: cell culture experiments (toxic effects)
# Assay type: cell-based
# Settings: at concentrations of up to 5 mM
smiles,measurement,value
"C=CC(=O)NCCCC[C@H](N)C(=O)O [acryloyl-lysine, (S)-6-acrylamido-2-aminohexanoic acid]",toxic effects in cell culture experiments,do not exhibit any toxic effects
